The values below come from patent publication US20260055103A1, “2,3,4,9-TETRAHYDRO-1H-PYRIDO[3,4-B]INDOLE DERIVATIVES AS ESTROGEN RECEPTOR MODULATORS FOR THE TREATMENT OF CANCER” (Olema Pharmaceuticals, Inc., priority 2022, published 2026).

The structures appear in SMILES notation.

The test concerns the target T1, estrogen receptor (Homo sapiens, UniProt P03372).
T1 construct: endogenous in cells; host or cells: ECC-1 cells
T1 sequence (P03372 1-595): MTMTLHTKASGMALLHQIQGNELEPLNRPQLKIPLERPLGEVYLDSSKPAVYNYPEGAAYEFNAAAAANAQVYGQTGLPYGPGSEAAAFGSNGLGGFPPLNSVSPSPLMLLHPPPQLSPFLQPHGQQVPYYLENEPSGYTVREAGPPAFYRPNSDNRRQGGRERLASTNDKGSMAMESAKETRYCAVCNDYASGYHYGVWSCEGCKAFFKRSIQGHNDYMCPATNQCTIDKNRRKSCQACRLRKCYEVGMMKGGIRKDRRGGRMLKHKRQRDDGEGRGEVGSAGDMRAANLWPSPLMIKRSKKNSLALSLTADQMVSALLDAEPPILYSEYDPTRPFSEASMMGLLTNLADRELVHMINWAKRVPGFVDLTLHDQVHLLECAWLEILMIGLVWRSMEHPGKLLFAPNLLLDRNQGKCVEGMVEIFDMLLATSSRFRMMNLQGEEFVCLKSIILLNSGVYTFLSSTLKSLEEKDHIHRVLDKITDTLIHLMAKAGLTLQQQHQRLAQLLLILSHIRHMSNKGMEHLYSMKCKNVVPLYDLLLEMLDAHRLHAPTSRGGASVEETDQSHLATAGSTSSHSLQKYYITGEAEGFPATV
As to the kind of experiment: Alkaline phosphatase (AP) assay in ECC-1 cells, agonist mode (no E2) and antagonist mode (500 pM E2). Format: cell-based. The note with it: 3 days, AP activity normalized to 500 pM E2 alone, agonist mode without E2, antagonist mode with 500 pM E2. The procedure: ECC-1 cells were trypsinized and resuspended in hormone-depleted media and plated at a density of 15 k cells per well into a 96-well plate for at least 4 hours. Cells were treated with test compounds in the absence of E2 (for agonist mode) or in the presence of 500 pM E2 (for antagonist mode) for 3 days and plates were subsequently frozen at −80° C. Thawed plates were incubated with a chromogenic substrate of AP, p-nitrophenyl phosphate (Thermo Fisher Scientific), for 40 minutes at 42° C., and absorbances were read at 405 nm. AP activity was normalized to the activity of 500 pM E2 alone.
The compound numbers correspond to the compound numbers of Table 1 and 2. Compounds having an activity designated as “+” provided estrogen receptor agonism having (i) at least 80% increase in the E2-normalized signal in the AP assay (agonist mode) and (ii) no more than 80% reduction in the E2-normalized signal in the AP assay (antagonist mode). Compounds having an activity designated as “++” provided estrogen receptor antagonism having (i) between 10% and 80% increase in the E2-normalized signal in the AP assay (agonist mode) and (ii) between 10% and 80% reduction in the E2-normalized signal in the AP assay (antagonist mode).

Consider `C[C@@H]1Cc2c([nH]c3ccccc23)[C@@H](c2cnc(C[C@H]3CCN(CCCF)C3)s2)N1CC(F)F` [Example I-30, 5-((1S,3R)-2-(2,2-difluoroethyl)-3-methyl-2,3,4,9-tetrahydro-1H-pyrido[3,4-b]indol-1-yl)-2-(((R)-1-(3-fluoropropyl)pyrrolidin-3-yl)methyl)thiazole], for which the “Activity (estrogen receptor modulation, agonism and antagonism)” value (shortened to “Activity”) is “++ (estrogen receptor antagonism having (i) between 10% and 80% increase in the E2-normalized signal in the AP assay (agonist mode) and (ii) between 10% and 80% reduction in the E2-normalized signal in the AP assay (antagonist mode))”.
On to `C[C@@H]1Cc2c([nH]c3ccccc23)[C@@H](c2ncc(CC3CN(CCCF)C3)s2)N1CC(F)F` [Example I-31], for which the “Activity” value was “++ (estrogen receptor antagonism having (i) between 10% and 80% increase in the E2-normalized signal in the AP assay (agonist mode) and (ii) between 10% and 80% reduction in the E2-normalized signal in the AP assay (antagonist mode))”.
For `CCCN1CC(Cc2cnc([C@@H]3c4[nH]c5ccccc5c4C[C@@H](C)N3CC(F)F)s2)C1` [Example I-32, 2-[(1S,3R)-2-(2,2-difluoroethyl)-3-methyl-1,3,4,9-tetrahydropyrido[3,4-b]indol-1-yl]-5-[(1-propylazetidin-3-yl)methyl]thiazole], the “Activity” value is “++ (estrogen receptor antagonism having (i) between 10% and 80% increase in the E2-normalized signal in the AP assay (agonist mode) and (ii) between 10% and 80% reduction in the E2-normalized signal in the AP assay (antagonist mode))”.
The result for `C[C@@H]1Cc2c([nH]c3ccccc23)[C@@H](c2cnc(C[C@H]3CCN(CCCF)C3)s2)N1CC(F)(F)F` [Example I-33, 2-(((R)-1-(3-fluoropropyl)pyrrolidin-3-yl)methyl)-5-((1S,3R)-3-methyl-2-(2,2,2-trifluoroethyl)-2,3,4,9-tetrahydro-1H-pyrido[3,4-b]indol-1-yl)thiazole] reads “++ (estrogen receptor antagonism having (i) between 10% and 80% increase in the E2-normalized signal in the AP assay (agonist mode) and (ii) between 10% and 80% reduction in the E2-normalized signal in the AP assay (antagonist mode))”; that for `C[C@@H]1Cc2c([nH]c3ccccc23)[C@@H](c2ncc(CC3CN(CCCF)C3)s2)N1CC(F)(F)F` [Example I-34, 5-[[1-(3-fluoropropyl)azetidin-3-yl]methyl]-2-[(1S,3R)-3-methyl-2-(2,2,2-trifluoroethyl)-1,3,4,9-tetrahydropyrido[3,4-b]indol-1-yl]thiazole], “++ (estrogen receptor antagonism having (i) between 10% and 80% increase in the E2-normalized signal in the AP assay (agonist mode) and (ii) between 10% and 80% reduction in the E2-normalized signal in the AP assay (antagonist mode))”; that for `C[C@@H]1Cc2c([nH]c3ccccc23)[C@@H](c2ncc(CC3CN(CCC(F)F)C3)s2)N1CC(F)F` [Example I-35, 2-[(1S,3R)-2-(2,2-difluoroethyl)-3-methyl-1,3,4,9-tetrahydropyrido[3,4-b]indol-1-yl]-5-[[1-(3,3-difluoropropyl)azetidin-3-yl]methyl]thiazole], “++ (estrogen receptor antagonism having (i) between 10% and 80% increase in the E2-normalized signal in the AP assay (agonist mode) and (ii) between 10% and 80% reduction in the E2-normalized signal in the AP assay (antagonist mode))”.
With `C[C@@H]1Cc2c([nH]c3ccccc23)[C@@H](c2cnc(C[C@H]3CCN(CCCF)C3)s2)N1CC(F)(F)CO` [Example I-36, 2,2-difluoro-3-[(1S,3R)-1-[2-[[(3R)-1-(3-fluoropropyl)pyrrolidin-3-yl]methyl]thiazol-5-yl]-3-methyl-1,3,4,9-tetrahydropyrido[3,4-b]indol-2-yl]propan-1-ol], the “Activity” value was “+ (estrogen receptor agonism having (i) at least 80% increase in the E2-normalized signal in the AP assay (agonist mode) and (ii) no more than 80% reduction in the E2-normalized signal in the AP assay (antagonist mode))”.
For the molecule `CCCN1CC(Cc2cnc([C@@H]3c4[nH]c5ccccc5c4C[C@@H](C)N3CC(F)(F)F)s2)C1` [Example I-37, 2-[(1S,3R)-3-methyl-2-(2,2,2-trifluoroethyl)-1,3,4,9-tetrahydropyrido[3,4-b]indol-1-yl]-5-[(1-propylazetidin-3-yl)methyl]thiazole], the “Activity” value is “++ (estrogen receptor antagonism having (i) between 10% and 80% increase in the E2-normalized signal in the AP assay (agonist mode) and (ii) between 10% and 80% reduction in the E2-normalized signal in the AP assay (antagonist mode))”.
`C[C@@H]1Cc2c([nH]c3ccccc23)[C@@H](c2cnc(CC3CN(CCCF)C3)s2)N1CC(F)(F)F` [Example I-38, 2-[[1-(3-fluoropropyl)azetidin-3-yl]methyl]-5-[(1S,3R)-3-methyl-2-(2,2,2-trifluoroethyl)-1,3,4,9-tetrahydropyrido[3,4-b]indol-1-yl]thiazole]: the “Activity” value is “++ (estrogen receptor antagonism having (i) between 10% and 80% increase in the E2-normalized signal in the AP assay (agonist mode) and (ii) between 10% and 80% reduction in the E2-normalized signal in the AP assay (antagonist mode))”.
The result for `C[C@@H]1Cc2c([nH]c3ccccc23)[C@@H](c2ncc(CC3CN(CCC(F)F)C3)s2)N1CC(F)(F)F` [Example I-39, 5-[[1-(3,3-difluoropropyl)azetidin-3-yl]methyl]-2-[(1S,3R)-3-methyl-2-(2,2,2-trifluoroethyl)-1,3,4,9-tetrahydropyrido[3,4-b]indol-1-yl]thiazole] reads “++ (estrogen receptor antagonism having (i) between 10% and 80% increase in the E2-normalized signal in the AP assay (agonist mode) and (ii) between 10% and 80% reduction in the E2-normalized signal in the AP assay (antagonist mode))”.
With `C[C@@H]1Cc2c([nH]c3ccccc23)[C@@H](c2cnc(CC3CN(CCCF)C3)s2)N1CC(F)(F)CO` [Example I-40, 2,2-difluoro-3-[(1S,3R)-1-[2-[[1-(3-fluoropropyl)azetidin-3-yl]methyl]thiazol-5-yl]-3-methyl-1,3,4,9-tetrahydropyrido[3,4-b]indol-2-yl]propan-1-ol], the “Activity” value is “+++ (estrogen receptor antagonism (i) with pIC50 greater than 7.5 and at least a 10% reduction in the E2-normalized signal in the AP assay (antagonist mode); and no more than 10% increase in E2-normalized signal in the AP assay (agonist mode))”.
For `C[C@@H]1Cc2c([nH]c3ccccc23)[C@@H](c2cnc(C[C@@H]3CCN(CCCF)C3)s2)N1CC(F)F` [Example I-41, 5-[(1S,3R)-2-(2,2-difluoroethyl)-3-methyl-1,3,4,9-tetrahydropyrido[3,4-b]indol-1-yl]-2-[[(3S)-1-(3-fluoropropyl)pyrrolidin-3-yl]methyl]thiazole], the “Activity” value is “++ (estrogen receptor antagonism having (i) between 10% and 80% increase in the E2-normalized signal in the AP assay (agonist mode) and (ii) between 10% and 80% reduction in the E2-normalized signal in the AP assay (antagonist mode))”.
The result for `C[C@@H]1Cc2c([nH]c3ccccc23)[C@@H](c2cnc(C[C@@H]3CCN(CCCF)C3)s2)N1CC(F)(F)CO` [Example I-42] reads “++ (estrogen receptor antagonism having (i) between 10% and 80% increase in the E2-normalized signal in the AP assay (agonist mode) and (ii) between 10% and 80% reduction in the E2-normalized signal in the AP assay (antagonist mode))”.
